In US6911474B2, “Methods, compounds, and compositions for reducing body fat and modulating fatty acid metabolism” (The Regents of the University of California, priority 2001, dated 2005):
Where “and” joins values, the source holds several entries; their conditions need not be identical. Equal entries are not always repeated.

Tests used:
[1] = Acute food intake in 24-h food-deprived rats after i.p. administration; assay type: in vivo, rat
Method: (§1) Feeding experiments. Acute experiments. Food intake was measured in 24-h food-deprived rats (Navarro et al., J. Neurochem., 67:1982-1991 (1996)), administering drugs 15 min before food presentation. Subchronic experiments. Ad libitum fed rats received vehicle injections for three days. On day four, the animals were divided in two equal groups and gave them daily injections of vehicle or OEA (5 mg per kg at 1900 h) for 7 consecutive days, while measuring body weight, food intake and water intake.
The effects of systemically administered OEA on food intake in rats can be assessed using a 24 h fast. […] To define the selectivity of this response, various OEA analogs were evaluated for their ability to produce hypophagia.

[2] = Hot plate test, pain threshold; assay type: in vivo, rat; conditions: FIG. 4f
Method: (§2) Other behavioral assays. The elevated plus maze test was conducted as described (Navarro et al., Neuroreport, 8:491-496 (1997)) after the administration of vehicle or OEA (20 mg per kg, i.p.). Horizontal activity in an open field (Beltramo et al., J. Neurosci., 20:3401-3407 (2000)) and pain threshold in the hot plate test (55° C.) (Beltramo et al., Science, 277:1094-1097 (1997)) were measured 15 min after injection of vehicle or OEA (20 mg per kg). Rectal temperature was measured using a digital thermometer (Martin-Calderón et al., Eur. J. Pharmacol., 344:77-86. (1998)).

[3] = Subchronic administration: food intake, body weight and water intake; assay type: in vivo, rat; conditions: 5 mg per kg, i.p., daily for seven days
Method: as §1
OEA was subchronically administered to rats.

[4] = test system: Astrocyte; assay: [14C]oleate oxidation to ketone bodies in astrocytes; assay type: cell-based, rat
[5] = test system: Soleus muscle; assay: [14C]oleate oxidation to CO2 in soleus muscle; assay type: cell-based, rat
[6] = Circulating OEA level after i.p. administration (HPLC/MS); assay type: in vivo; conditions: rat, plasma, ip, 1 hr after 5 mg per kg, read-out: circulating OEA levels
Method: HPLC/MS analyses. Plasma was prepared from blood obtained by cardiac puncture (Giuffrida et al., Anal. Biochem., 280:87-93 (2000)) and CSF was collected from the cisterna magna using a 27G ½ needle (Precisionglide, USA). FAEs and NAPE were extracted from tissues with methanol/chloroform and fractionated by column chromatography (Giuffrida et al., “Lipid Second Messengers” (ed. Laychock, S. G. & Rubin, R. P.) 113-133 (CRC Press LLC, Boca Raton, Fla., 1998)). FAEs were quantified by HPLC/MS, using an isotope dilution method (Giuffrida et al., Anal. Biochem., 280:87-93 (2000)). Individual NAPE species were identified and quantified by HPLC/MS, using an external standard method (Calignano et al., Nature, 408:96-101 (2000)).
OEA elicits hypophagia at physiologically relevant doses. […] Thus, the concentrations reached by OEA in blood during starvation can be sufficient to elicit notable behavioral responses.

[7] = test system: Hepatocyte; assay: [14C]oleate oxidation to ketone bodies in hepatocytes; assay type: cell-based, rat
Method: Compounds can also be assayed for their effect on fatty acid metabolism. The effect of the candidate compound on fatty acid metabolism can be measured by measurements of fatty acid oxidation in primary cultures of liver cells. Hepatocytes may be used to determine the rate of oleate oxidation to ketone bodies and carbon dioxide. Such cells can be isolated from adult rat liver by enzymatic digestion as described by Beynen et al. in Diabetes 28:828 (1979). Cells typically are cultured in suspension and incubated in Krebs-Henseleit's bicarbonate medium supplemented with bovine serum albumin and glucose as described by Guzmán & Geelen, Biochem. J. 287:487(1992). The protein concentration of the cultured cells can be determined and cells seeded in 2 ml media so that 4-6 mg protein per ml is present in the reaction mixture. Cells can be incubated for 10 minutes at 37° C. with [^14C]-oleic acid (Arnersham), in the presence or absence of 10 μM OEA, reactions may be stopped with 200 μl 2M perchloric acid and acid-soluble products extracted with chloroform/methanol/water (5:1:1, vol:vol:vol). The aqueous phase can be removed and washed twice more. Protein concentration can be determined using a Lowry assay. The rate of oleate conversion into ketone bodies may be expressed as rnmol of oleate oxidized per hour per mg protein and may be determined using liquid scintillation counting. […]

[8] = test system: c-fos mRNA; assay: c-fos mRNA in situ hybridization in brain; assay type: in vivo, rat; conditions: 10 mg per kg, i.p., 60 min
Method: In situ hybridization. Rats were accustomed to the handling and injection procedure for five days. On day six, vehicle or drug OEA (10 mg per kg, i.p.), or oleic acid (10 mg per kg) was administered, and the rats killed 60 min later by decapitation under anesthesia. In situ hybridization analyses were conducted using ^35S-labeled cRNA probes for c-fos (Guthrie et al., Proc. Natl. Acad. Sci. U.S.A., 90:3329-3333 (1993)) and choline acetyl transferase (ChAT) (Lauterbom et al., Brain Res. Mol. Brain Res., 17:59-69 (1993)). Average hybridization densities were determined from at least three tissue sections per rat. Statistical significance was evaluated using one-way analysis of variance (ANOVA) followed by the Tukey-Kramer post-hoc test for paired comparisons.

[9] = Plasma hormone levels by radioimmunoassay (HPA axis); assay type: in vivo, rat; conditions: Table 3
Method: Blood chemistry. Plasma β-hydroxybutyrate and glycerol were measured using commercial kits (Sigrna, St. Louis, Mo.). Plasma prolactin, corticosterone and luteinizing hormone were quantified by radioimmunoassay (Navarro et al., Neuroreport, 8:491-496 (1997)).

[10] = Body (rectal) temperature; assay type: in vivo, rat; conditions: 5 or 20 mg per kg; FIG. 4e
Method: as §2

CCCCCCCC/C=C\CCCCCCCC(=O)NCCO [OEA, Oleoylethanolamide]
half-maximally effective dose for hypophagia [1]: 5 mg per kg
suppression of food intake (hypophagia) ([1]; 24-h food-deprived rats, 15 min before food presentation, FIG. 4a,b): dose- and time-dependent suppression
pain threshold [2]: did not alter
cumulative food intake ([3]; FIG. 5a): small, but significant decrease
weight gain ([3]; FIG. 5b,c): profound inhibition
water intake ([3]; FIG. 5d): did not affect
Stimulatory effect of 10 μM OEA (%) on [14C]oleate oxidation to ketone bodies ([4]; Astrocyte, 10 μM, 30 min incubation): 2 ± 6%
fatty acid oxidation in words ([4]; brain-derived astroglial cell cultures): no effect
Stimulatory effect of 10 μM OEA (%) on [14C]oleate oxidation to CO2 ([5]; Soleus muscle, 10 μM, 30 min incubation): 36 ± 10%
fatty acid oxidation in words ([5]; primary cultures of skeletal muscle (soleus)): significantly stimulates
concentration at 1 hr [6]: 16.1 ± 2.6 nM
Stimulatory effect of 10 μM OEA (%) on [14C]oleate oxidation to ketone bodies ([7]; Hepatocyte, 10 μM, 10 min incubation): 21+−6% and 21 ± 6%
fatty acid oxidation in words ([7]; primary cultures of liver cells): significantly stimulates
c-fos expression in other brain regions [8]: not significantly affected
c-fos mRNA levels in the PVN, supraoptic nucleus and NST [8]: highly localized increase
activity of the hypothalamus-pituitary-adrenal (HPA) axis [9]: did not alter
body temperature [10]: did not alter
